Consider 31 molecules from patent US20090306392A1, “GSM INTERMEDIATES” (priority 2007, published 2009).

The test system of the first experiment is γ-secretase. Nature of the experiment: Screening for γ-secretase-modulating activity in SKNBE2 cells carrying APP 695-wild type. The format is cell-based. As to conditions: 0.3 uM; SKNBE2 cells carrying the APP 695-wild type.
On to `CC(C)CCC(c1ccc(C(F)(F)F)cc1)N1CCCC(c2cc(-c3ccc(C(F)(F)F)cc3)cc([C@@H](CC(C)C)C(=O)O)c2)C1` (single isomer, unassigned) [Example 37, (R*)4-Methyl-2-(5-{1-[4-methyl-1-(4-trifluoromethyl-phenyl)-pentyl]-piperidin-3-yl}-4′-trifluoromethyl-biphenyl-3-yl)-pentanoic Acid], for which the “% @ 0.3 uM (WTAPP)” value is given as 44% @ 0.3 uM.
With `CC(C)CC(C(=O)O)c1cc(-c2ccc(C(F)(F)F)cc2)cc(N(C)c2ccc(C(F)(F)F)cc2)c1` (stereo not shown) [Example 13, 4-Methyl-2-{5-[methyl-(4-trifluoromethyl-phenyl)-amino]-4′-trifluoromethyl-biphenyl-3-yl}-pentanoic Acid], the “% @ 0.3 uM (WTAPP)” value is 21% @ 0.3 uM.
The same measure, in the same setting: in the case of `CC(C)CC(C(=O)O)c1cc(-c2ccc(C(F)(F)F)cc2)cc(C2CCN(Cc3ccc(C(F)(F)F)cc3)CC2)c1` (stereo not shown) [Example 31, 4-Methyl-2-{4′-trifluoromethyl-5-[1-(4-trifluoromethyl-benzyl)-piperidin-4-yl]-biphenyl-3-yl}-pentanoic Acid] it was 8% @ 0.3 uM.

The experiment is the same for the next values; noted with them: 3 uM; SKNBE2 cells carrying the APP 695-wild type.
`CC(C)CC(C(=O)O)c1cc(Nc2cc(F)cc(F)c2)cc(-c2ccc(C(F)(F)F)cc2)c1` (stereo not shown) [Example 9, 2-[5-(3,5-Difluoro-phenylamino)-4′-trifluoromethyl-biphenyl-3-yl]-4-methyl-pentanoic Acid]: the “inhibition @ 3 uM (WTAPP)” value stood at 73% inhibition @ 3 uM.
On the same count and under the same terms, in the case of `CC(C)CC(C(=O)O)c1cc(Oc2cccc(C(C)C)c2)cc(-c2ccc(C(F)(F)F)cc2)c1` (stereo not shown) [Example 16, 2-[5-(3-Isopropyl-phenoxy)-4′-trifluoromethyl-biphenyl-3-yl]-4-methyl-pentanoic Acid] it was 64% inhibition @ 3 uM.

The same experiment, now with this note: SKNBE2 cells carrying the APP 695-wild type; read-out: EC 50 WTAPP.
“4-Methyl-2-[4′-trifluoromethyl-5-(4-trifluoromethyl-phenylamino)-biphenyl-3-yl]-pentanoic Acid [Example 10]”: the EC50 worked out at 280 nM.
Regarding `CCC(c1ccc(C(F)(F)F)cc1)N1CCCC(c2cc(-c3ccc(C(F)(F)F)cc3)cc([C@@H](CC(C)C)C(=O)O)c2)C1` (single isomer, unassigned) [Example 26, (R*)4-Methyl-2-(4′-trifluoromethyl-5-{1-[1-(4-trifluoromethyl-phenyl)-propyl]-piperidin-3-yl}-biphenyl-3-yl)-pentanoic Acid], the EC50 worked out at 360 nM.
Still for that read-out and setting: in the case of `CCC(c1ccc(C(F)(F)F)cc1)N1CCCC(c2cc(-c3ccc(C(F)(F)F)cc3)cc([C@H](CC(C)C)C(=O)O)c2)C1` (single isomer, unassigned) [Example 35, (S*)4-Methyl-2-(4′-trifluoromethyl-5-{1-[1-(4-trifluoromethyl-phenyl)-propyl]-piperidin-3-yl}-biphenyl-3-yl)-pentanoic Acid] it was 590 nM; in that of `CC(C)C[C@@H](C(=O)O)c1cc(OCc2cc(F)cc(F)c2)cc(-c2ccc(C(F)(F)F)cc2)c1` [Example 1, (R)2-[5-(3,5-Difluoro-benzyloxy)-4′-trifluoromethyl-biphenyl-3-yl]-4-methyl-pentanoic Acid], 530 nM.
Still for that read-out and setting: in the case of `CC(C)C[C@H](C(=O)O)c1cc(OCc2cc(F)cc(F)c2)cc(-c2ccc(C(F)(F)F)cc2)c1` [Example 2, (S)-2-[5-(3,5-Difluoro-benzyloxy)-4′-trifluoromethyl-biphenyl-3-yl]-4-methyl-pentanoic Acid] it was 1520 nM.
For `CC(C)C[C@@H](C(=O)O)c1cc(OCc2ccc(F)cc2C(F)(F)F)cc(-c2ccc(C(F)(F)F)cc2)c1` [Example 3, (R)-2-[5-(4-fluoro-2-trifluoromethyl-benzyloxy)-4′-trifluoromethyl-biphenyl-3-yl]-4-methyl-pentanoic Acid], the EC50 was found to be 570 nM.
`CC(C)CC(C(=O)O)c1cc(OCc2cc(F)cc(F)c2)cc(-c2ccc(Cl)c(C(F)(F)F)c2)c1` (stereo not shown) [Example 4, 2-[4′-Chloro-5-(3,5-difluoro-2-benzyloxy)-3′-trifluoromethyl-biphenyl-3-yl]-4-methyl-pentanoic Acid]: the EC50 worked out at 310 nM.
As to `CC(C)CC(C(=O)O)c1cc(-c2ccc(C(F)(F)F)cc2)cc(-c2cc(F)cc(F)c2)c1` (stereo not shown) [Example 5, 2-(3,5-Difluoro-4″-trifluoromethyl-[1,1′;3′,1″]terphenyl-5′-yl)-4-methyl-pentanoic Acid], the EC50 came out at 190 nM.
Take `CC(C)CC(C(=O)O)c1cc(-c2ccc(C(F)(F)F)cc2)cc(-c2ccc(OC(F)(F)F)c(F)c2)c1` (stereo not shown) [Example 6, 2-(3-Fluoro-4-trifluoromethoxy-4″-trifluoromethyl-[1,1′;3′,1″]terphenyl-5′-yl)-4-methyl-pentanoic Acid]: the EC50 was determined as 140 nM.
With `CC(C)CC(C(=O)O)c1cc(Nc2ccc(C(C)C)cc2)cc(-c2ccc(C(F)(F)F)cc2)c1` (stereo not shown) [Example 11, 2-[5-(4-Isopropyl-phenylamino)-4′-trifluoromethyl-biphenyl-3-yl]-4-methyl-pentanoic Acid], the EC50 is 290 nM.
Regarding `CC(C)C[C@@H](C(=O)O)c1cc(Nc2cc(C(F)(F)F)ccc2C(F)(F)F)cc(-c2ccc(C(F)(F)F)cc2)c1` [Example 12, (R)2-[5-(2,5-Bis-trifluoromethyl-phenylamino)-4′-trifluoromethyl-biphenyl-3-yl]-4-methyl-pentanoic Acid], the EC50 stood at 150 nM.
On the same count and under the same terms, the result for `CC(C)CCN(c1ccc(C(F)(F)F)cc1)c1cc(-c2ccc(C(F)(F)F)cc2)cc(C(CC(C)C)C(=O)O)c1` (stereo not shown) [Example 14, 4-Methyl-2-{5-[(3-methyl-butyl)-(4-trifluoromethyl-phenyl)-amino]-4′-trifluoromethyl-biphenyl-3-yl}-pentanoic Acid] reads 170 nM.
Consider `CC(C)CCN(c1ccc(Cl)cc1)c1cc(-c2ccc(C(F)(F)F)cc2)cc(C(CC(C)C)C(=O)O)c1` (stereo not shown) [Example 15, 2-{5-[(4-Chloro-phenyl)-(3-methyl-butyl)-amino]-4′-trifluoromethyl-biphenyl-3-yl}-4-methyl-pentanoic Acid], for which the EC50 worked out at 150 nM.
With `CC(C)CC(C(=O)O)c1cc(Oc2cc(F)cc(C(F)(F)F)c2)cc(-c2ccc(Cl)c(C(F)(F)F)c2)c1` (stereo not shown) [Example 17, 4-Methyl-2-[4′-chloro-3′-trifluoromethyl-5-(3-fluoro-5-trifluoromethylphenoxy)-biphenyl-3-yl]-pentanoic Acid], the EC50 came out at 140 nM.
The same measure, in the same setting: the result for `CC(C)CC(C(=O)O)c1cc(Oc2cc(F)cc(C(F)(F)F)c2)cc(-c2ccc(C(F)(F)F)cc2)c1` (stereo not shown) [Example 18, 2-[5-(3-Fluoro-5-trifluoromethyl-phenoxy)-4′-trifluoromethyl-biphenyl-3-yl]-4-methyl-pentanoic Acid] reads 330 nM.
Take `CC(C)CC(C(=O)O)c1cc(-c2ccc(C(F)(F)F)cc2)cc(-c2cc(F)nc(F)c2)c1` (stereo not shown) [Example 19, 2-[5-(2,6-Difluoro-pyridin-4-yl)-4′-trifluoromethyl-biphenyl-3-yl]-4-methyl-pentanoic Acid]: the EC50 was 220 nM.
Still for that read-out and setting: the result for `CC(C)CC(C(=O)O)c1cc(-c2ccc(C(F)(F)F)cc2)cc(-c2ccc(C(F)(F)F)cn2)c1` (stereo not shown) [Example 20, 4-Methyl-2-[4′-trifluoromethyl-5-(5-trifluoromethyl-pyridin-2-yl)-biphenyl-3-yl]-pentanoic Acid] reads 320 nM.
For `CC(C)CCC(Oc1cc(-c2ccc(C(F)(F)F)cc2)cc(C(CC(C)C)C(=O)O)c1)c1cc(F)cc(F)c1` (stereo not shown) [Example 21, 2-{5-[1-(3,5-Difluoro-phenyl)-4-methyl-pentyloxy]-4′-trifluoromethyl-biphenyl-3-yl}-4-methyl-pentanoic Acid], the EC50 was determined as 230 nM.
In the case of `CC(C)CC(C(=O)O)c1cc(C(=O)c2cc(Cl)cc(Cl)c2)cc(-c2ccc(C(F)(F)F)cc2)c1` (stereo not shown) [Example 22, 2-[5-(3,5-Dichloro-benzoyl)-4′-trifluoromethyl-biphenyl-3-yl]-4-methyl-pentanoic Acid], the EC50 came to 710 nM.
In the case of `CC(C)CC(C(=O)O)c1cc(/C=C/c2ccc(-c3ccccc3)cc2)cc(-c2ccc(C(F)(F)F)cc2)c1` (stereo not shown) [Example 23, 2-[5-(2-Biphenyl-4-yl-vinyl)-4′-trifluoromethyl-biphenyl-3-yl]-4-methyl-pentanoic Acid], the EC50 is 140 nM.
On the same count and under the same terms, the result for `CC(C)CC(C(=O)O)c1cc(CCc2ccc(-c3ccccc3)cc2)cc(-c2ccc(C(F)(F)F)cc2)c1` (stereo not shown) [Example 24, 2-[5-(2-Biphenyl-4-yl-ethyl)-4′-trifluoromethyl-biphenyl-3-yl]-4-methyl-pentanoic Acid] reads 210 nM; that for `CC(C)CC(C(=O)O)c1cc(NC(=O)c2cccc(C(F)(F)F)c2)cc(-c2ccc(C(F)(F)F)cc2)c1` (stereo not shown) [Example 25, 4-Methyl-2-[4′-trifluoromethyl-5-(3-trifluoromethyl-benzoylamino)-biphenyl-3-yl]-pentanoic Acid], 1790 nM.
On the same count and under the same terms, the result for `CC(C)CC(C(=O)O)c1cc(-c2ccc(C(F)(F)F)cc2)cc(C2CCCC(C(F)(F)F)N2)c1` (stereo not shown) [Example 27, 4-Methyl-2-[4′-trifluoromethyl-5-(6-trifluoromethyl-piperidin-2-yl)-biphenyl-3-yl]-pentanoic Acid] reads 700 nM.
Still for that read-out and setting: in the case of `CC(C)CCN1C(c2cc(-c3ccc(C(F)(F)F)cc3)cc(C(CC(C)C)C(=O)O)c2)CCCC1C(F)(F)F` (stereo not shown) [Example 28, 4-Methyl-2-{5-[1-(3-methyl-butyl)-6-trifluoromethyl-piperidin-2-yl]-4′-trifluoromethyl-biphenyl-3-yl}-pentanoic Acid] it was 110 nM; in that of `CC(C)CCN(Cc1cc(-c2ccc(C(F)(F)F)cc2)cc(C(CC(C)C)C(=O)O)c1)Cc1cc(F)c(F)c(F)c1` (stereo not shown) [Example 29, 4-Methyl-2-(5-{[(3-methyl-butyl)-(3,4,5-trifluoro-benzyl)-amino]-methyl}-4′-trifluoromethyl-biphenyl-3-yl)-pentanoic Acid], 270 nM.
As to `CC(C)CCN(Cc1cc(-c2ccc(C(F)(F)F)cc2)cc(C(CC(C)C)C(=O)O)c1)Cc1cc(C(F)(F)F)cc(C(F)(F)F)c1` (stereo not shown) [Example 30, 2-(5-{[(3,5-Bis-trifluoromethyl-benzyl)-(3-methyl-butyl)-amino]-methyl}-4′-trifluoromethyl-biphenyl-3-yl)-4-methyl-pentanoic Acid], the EC50 came out at 250 nM.
